Measurements from ChEMBL document CHEMBL1127927, “Cycloheptimidazole based angiotensin II receptor antagonists. 4,5,6,7-tetrahydro-8-carboxymethylidene cycloheptimidazoles” (Bioorg Med Chem Lett, 1994).

Molecular target: T1, Angiotensin II receptor (AT-1) type-1 (Rattus norvegicus, UniProt P29089+P25095)
T1 sequence (P29089 whole entry): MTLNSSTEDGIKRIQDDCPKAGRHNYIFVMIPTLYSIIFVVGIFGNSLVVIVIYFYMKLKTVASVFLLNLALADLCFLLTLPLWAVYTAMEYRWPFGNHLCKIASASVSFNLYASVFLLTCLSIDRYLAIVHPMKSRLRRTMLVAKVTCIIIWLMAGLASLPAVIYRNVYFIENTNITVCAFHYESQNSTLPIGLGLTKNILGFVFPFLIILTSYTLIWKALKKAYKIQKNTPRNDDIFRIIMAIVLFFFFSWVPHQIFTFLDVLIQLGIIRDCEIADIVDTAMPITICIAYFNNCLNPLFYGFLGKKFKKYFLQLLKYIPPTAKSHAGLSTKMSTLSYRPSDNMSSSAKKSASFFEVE
T1 sequence (P25095 whole entry): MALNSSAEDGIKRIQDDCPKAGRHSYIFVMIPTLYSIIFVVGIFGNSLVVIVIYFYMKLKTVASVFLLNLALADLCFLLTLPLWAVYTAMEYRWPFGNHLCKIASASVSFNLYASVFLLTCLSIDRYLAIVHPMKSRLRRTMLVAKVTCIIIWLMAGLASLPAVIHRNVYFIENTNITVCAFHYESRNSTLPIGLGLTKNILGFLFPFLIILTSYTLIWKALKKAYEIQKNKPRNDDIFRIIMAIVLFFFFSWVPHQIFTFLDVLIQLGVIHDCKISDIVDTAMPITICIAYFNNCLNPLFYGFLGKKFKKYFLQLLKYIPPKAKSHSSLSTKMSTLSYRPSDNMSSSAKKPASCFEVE
Test: Inhibition of binding of [125I]- Sar,Ileu-angiotensin to Angiotensin II receptor, type 1 in the radioligand binding assay using rat liver membrane preparations

- IC50: 5.45 nM
Structure (SMILES): CCc1nc2c(n1Cc1ccc(-c3ccccc3-c3nn[nH]n3)cc1)/C(=C/C(=O)O)CCCC2
